In DBAASP:
Values after ≈ are worked out from the molar mass of the structure shown. Blank lines part the entries; values can stand above or below the compound they belong to.

Legend:
Test in all cases: ≥ marks a high value that may be exact or a test limit, other limits are often not marked, values filed in µg/mL are converted to µM
[1] = test system: Edwardsiella tarda DMST 38217
[2] = test system: Bacillus cereus TISTR 1449
[3] = test system: Staphylococcus aureus ATCC 25923
[4] = test system: Aeromonas hydrophila TISTR 1321
[5] = test system: Bacillus subtilis TISTR 1248
[6] = test system: Salmonella typhimurium TISTR 1472
[7] = test system: Bacillus megaterium TISTR 067
[8] = test system: Enterococcus faecalis TISTR 927
[9] = test system: Candida albicans TISTR 5554
[10] = test system: Staphylococcus aureus TISTR 746
[11] = test system: Escherichia coli DH5alpha
[12] = test system: Salmonella enterica subsp. enterica serovar Derby DMST 16881
[13] = test system: Escherichia coli ATCC 25922
[14] = test system: Pseudomonas aeruginosa TISTR 1287
[15] = test system: Pseudomonas aeruginosa 4891
[16] = test system: Escherichia coli CCARM 1229
[17] = test system: Staphylococcus aureus CCARM 3518
[18] = test system: Escherichia coli CCARM 1238
[19] = test system: Candida albicans KCTC 7270
[20] = test system: Trichosporon beigelii KCTC 7707
[21] = test system: Pseudomonas aeruginosa 4007
[22] = test system: Staphylococcus aureus CCARM 3090
[23] = test system: Candida tropicalis ATCC 20240
Candida krusei ATCC 6258 = test system: Candida krusei ATCC 6258
[24] = test system: Candida glabrata ATCC 90525
[25] = test system: Candida albicans ATCC 2048
[26] = test system: Candida parapsilosis ATCC 20224
[27] = test system: Enterococcus faecium KCCM 12118
[28] = test system: Staphylococcus aureus KCCM 40510
[29] = test system: Escherichia coli KCTC 1682
[30] = test system: Enterococcus faecalis KCCM 29212
[31] = test system: Bacillus subtilis KCTC 3068
[32] = test system: Staphylococcus aureus KCTC 1621
[33] = test system: Salmonella typhimurium KCTC 1926
[34] = test system: Enterococcus faecalis ATCC 51575
[35] = test system: Staphylococcus epidermidis KCTC 1917
[36] = test system: Enterococcus faecium ATCC 51559
[37] = test system: Pseudomonas aeruginosa KCTC 1637
Escherichia coli D31 = test system: Escherichia coli D31
[38] = test system: Pseudomonas aeruginosa ATCC 27853
Escherichia coli SBS 363 = test system: Escherichia coli SBS 363
[39] = test system: Pseudomonas aeruginosa PA14
[40] = test system: Enterobacter cloacae beta-12
[41] = test system: Klebsiella aerogenes ATCC 35029
[42] = test system: Streptococcus pyogenes ATCC 49399
Bacillus megaterium Bm11 = test system: Bacillus megaterium Bm11
[43] = test system: Staphylococcus aureus ATCC 6538P
[44] = test system: Enterobacter cloacae ATCC 49141
[45] = test system: Enterococcus faecalis ATCC 19433

Compound: CC[C@H](C)[C@H](NC(=O)[C@H](C)NC(=O)[C@H](CCC(=O)O)NC(=O)[C@H](Cc1cnc[nH]1)NC(=O)[C@@H](NC(=O)[C@H](CCCCN)NC(=O)[C@H](CCC(N)=O)NC(=O)[C@H](Cc1ccccc1)NC(=O)[C@@H](NC(=O)[C@H](CCCCN)NC(=O)[C@H](CCCCN)NC(=O)[C@H](CC(C)C)NC(=O)[C@H](C)NC(=O)[C@H](CC(N)=O)NC(=O)[C@H](CC(C)C)NC(=O)CN)C(C)C)[C@@H](C)CC)C(=O)N[C@@H](CCCCN)C(=O)N[C@@H](CCCCN)C(=O)N[C@H](C(=O)N[C@@H](CC(N)=O)C(=O)N[C@@H](CC(N)=O)C(=O)N[C@@H](Cc1cnc[nH]1)C(=O)N[C@H](C(=O)N[C@@H](CCC(N)=O)C(N)=O)C(C)C)[C@@H](C)CC [GLNALKKVFQKIHEAIKKINNHVQ]
MIC [15]: 4 µM (≈ 11.1 µg/mL)
MIC [16]: 4 µM (≈ 11.1 µg/mL)
MIC [17]: 4 µM (≈ 11.1 µg/mL)
MIC [18]: 4 µM (≈ 11.1 µg/mL)
MIC [19]: ≥ 32 µM
MIC [20]: ≥ 32 µM
MIC [21]: 2 µM (≈ 5.54 µg/mL)
MIC [22]: 8 µM (≈ 22.2 µg/mL)

Compound: CC(C)C[C@H](NC(=O)[C@H](C)NC(=O)[C@H](CC(C)C)NC(=O)[C@H](CC(=O)O)NC(=O)[C@H](CCC(N)=O)NC(=O)[C@@H](N)CC(C)C)C(=O)N[C@@H](CCC(N)=O)C(=O)NCC(=O)N[C@@H](C)C(=O)N[C@@H](CCCCN)C(=O)N[C@@H](CCC(=O)O)C(=O)N[C@@H](CCCN=C(N)N)C(=O)N[C@@H](C)C(=O)N[C@@H](Cc1cnc[nH]1)C(=O)N[C@@H](CCC(N)=O)C(=O)N[C@@H](CCC(N)=O)C(=O)O [LQDLALQGAKERAHQQ]
MIC [23]: ≥ 410 µM
MIC (Candida krusei ATCC 6258): ≥ 380 µM
MIC [24]: ≥ 280 µM
MIC [25]: ≥ 380 µM
MIC [26]: ≥ 320 µM

Compound: CC[C@H](C)[C@H](NC(=O)[C@H](CC(C)C)NC(=O)[C@H](CC(C)C)NC(=O)[C@@H](N)CC(C)C)C(=O)N[C@@H](C)C(=O)N[C@@H](CC(C)C)C(=O)N[C@@H](CCCN=C(N)N)C(=O)N[C@@H](CCCCN)C(=O)N[C@@H](CCCCN)C(N)=O [LLLIALRKK]
MIC [27]: 3.75 µM (≈ 4 µg/mL)
MIC [28]: 3.75 µM (≈ 4 µg/mL)
MIC [29]: 3.75 µM (≈ 4 µg/mL)
MIC [30]: 3.75 µM (≈ 4 µg/mL)
MIC [31]: 3.75 µM (≈ 4 µg/mL)
MIC [32]: 3.75 µM (≈ 4 µg/mL)
MIC [33]: 1.87 µM (≈ 2 µg/mL)
MIC [34]: 7.49 µM (≈ 7.99 µg/mL)
MIC [35]: 1.87 µM (≈ 2 µg/mL)
MIC [36]: 1.87 µM (≈ 2 µg/mL)
MIC [37]: 3.75 µM (≈ 4 µg/mL)

Continued, values first:

MIC [1]: ≥ 225 µM
MIC [2]: ≥ 225 µM
MIC [3]: 225 µM (≈ 400 µg/mL)
MIC [4]: ≥ 225 µM
MIC [5]: 14.1 µM (≈ 25 µg/mL)
MIC [6]: ≥ 225 µM
MIC [7]: 7.03 µM (≈ 12.5 µg/mL)
MIC [8]: ≥ 56.2 µM
MIC [9]: ≥ 225 µM
MIC [10]: ≥ 225 µM
MIC [11]: ≥ 112 µM
MIC [12]: ≥ 225 µM
MIC [13]: 112 µM (≈ 200 µg/mL)
MIC [14]: ≥ 225 µM
Compound: CC(C)C[C@H](NC(=O)[C@H](CCCCN)NC(=O)[C@@H](NC(=O)[C@H](CO)NC(=O)[C@H](Cc1ccccc1)NC(=O)[C@H](CC(C)C)NC(=O)[C@H](Cc1c[nH]c2ccccc12)NC(=O)[C@@H](NC(=O)[C@H](CS)NC(=O)[C@H](CC(N)=O)NC(=O)[C@@H](N)CCCN=C(N)N)[C@@H](C)O)[C@@H](C)O)C(=O)N[C@@H](CCCCN)C(=O)N[C@@H](CC(C)C)C(=O)N1CCC[C@H]1C(=O)N[C@@H](C)C(=O)O [RNCTWLFSTKLKLPA]

MIC (Escherichia coli D31): 4.6 µM (≈ 7.81 µg/mL)
MIC [38]: 1.15 µM (≈ 1.95 µg/mL)
MIC (Escherichia coli SBS 363): 4.6 µM (≈ 7.81 µg/mL)
MIC [39]: 4.6 µM (≈ 7.81 µg/mL)
MIC [40]: 2.3 µM (≈ 3.9 µg/mL)
Compound: CC[C@H](C)[C@H](NC(=O)[C@H](CC(=O)O)NC(=O)[C@H](CC(=O)O)NC(=O)[C@H](CC(N)=O)NC(=O)CNC(=O)[C@H](CO)NC(=O)[C@H](Cc1ccccc1)NC(=O)[C@H](CC(=O)O)NC(=O)[C@@H](NC(=O)CNC(=O)[C@@H](N)C(C)C)[C@@H](C)O)C(=O)N[C@@H](CO)C(=O)N[C@@H](CC(=O)O)C(=O)N[C@H](C(=O)N[C@@H](CCC(N)=O)C(=O)N[C@@H](CCCCN)C(=O)O)C(C)C [VGTDFSGNDDISDVQK]

MIC [41]: ≥ 80 µM
MIC [42]: 10 µM (≈ 13 µg/mL)
MIC [38]: > 80 µM
MIC (Bacillus megaterium Bm11): 1.25 µM (≈ 1.62 µg/mL)
MIC [43]: ≥ 80 µM
MIC [13]: 80 µM (≈ 104 µg/mL)
MIC [44]: ≥ 80 µM
MIC [45]: ≥ 80 µM
Compound: CC[C@H](C)[C@H](NC(=O)[C@H](Cc1c[nH]c2ccccc12)NC(=O)[C@H](Cc1ccccc1)NC(=O)[C@@H]1CCCN1C(=O)[C@H](CCCN=C(N)N)NC(=O)[C@@H](N)CCCN=C(N)N)C(=O)N[C@H](C(=O)N[C@@H](CCCN=C(N)N)C(=O)N[C@@H](CCCN=C(N)N)C(N)=O)[C@@H](C)CC [RRPFWIIRR]
